Series [1] is described as follows: refractive index (Na D-line) (dimensionless). To be noted: 298.1 K; 101.33 kPa; Liquid; Standard Abbe refractometry.
For series [2] the following is noted: for vapor or sublimation pressure: Liquid.

We go through 2 compounds from the NIST ThermoML archive (doi:10.1016/j.fluid.2008.08.001).

± gives the expanded uncertainty stated by the source.

Turning to `CCCCOC(=O)CCCCCCCCC(=O)OCCCC` [dibutyl decanedioate], the refractive index in series [1] is on record as 1.442 ± 0.0007. Also, the “vapor or sublimation pressure” value is 0.666 ± 0.044 kPa in series [2] (468.96 K); 0.818 ± 0.05 kPa in series [2] (473.96 K); 1.036 ± 0.059 kPa in series [2] (478.65 K); 1.457 ± 0.078 kPa in series [2] (485.91 K); 1.515 ± 0.081 kPa in series [2] (488.5 K); 1.762 ± 0.093 kPa in series [2] (490.22 K). The “vapor or sublimation pressure” value in series [2] (496.8 K) is given as 2.286 ± 0.12 kPa; in series [2] (500.18 K), 2.647 ± 0.14 kPa; in series [2] (505.08 K), 3.149 ± 0.16 kPa; in series [2] (510.7 K), 4.078 ± 0.21 kPa; in series [2] (519.03 K), 5.29 ± 0.27 kPa; in series [2] (525.3 K), 7.044 ± 0.35 kPa. For the same compound, the “vapor or sublimation pressure” value in series [2] (532.77 K) is on record as 9.161 ± 0.46 kPa.
Take `O=C1C=CC(=O)O1` [maleic anhydride]: the Normal melting temperature in series [2] (Crystal, visual observation) came to 52.5 ± 0.5 °C.
